Paper PMC8637440, “Structural Modifications Yield Novel Insights Into the Intriguing Pharmacodynamic Potential of Anti-inflammatory Nitro-Fatty Acids” (Frontiers in Pharmacology, 2021)
Counter-ions that a name gives are not always drawn. Residues, ends and D or L forms follow the SMILES beside them. *: point of attachment. Cbz = O=C(OCc1ccccc1)*

How the values were obtained:
[1] = tested on: NF-κB p65; test: NF-κB p65 transcription factor ELISA in TNFα-stimulated HCT-116 cells; format: cell-based; settings: Homo sapiens, HCT-116, 4 h, read-out: inhibition of NF-κB p65 signaling
Method: (§1) The Nrf-2 and NF-κB transcription factors in the nuclear extracts were detected using an Nrf-2 Transcription Assay Kit (Cayman Chemical, # 600590) and NF-κB (p65 and p50) Transcription Factor Assay Kit (Cayman Chemical, # 10007889 and # 10006912). Prior to assay performance, the nuclear extracts were generated using a Nuclear Extraction Kit (Cayman Chemical, # 10009277). The assay was performed according to the manufacturer’s instructions. For all kits, the nuclear extracts were incubated overnight at 4°C. Development was carried out for 15–20 min or until the wells turned medium to dark blue. Five minutes after the stop solution had been added, the absorbance was read at 450 nm using a plate reader.
The proteasome inhibitor MG132 ([Lee and Goldberg, 1998]) was used as a positive control, as proteasomal inhibition leads to stabilization of I-κB and thus inhibits the activation of the NF-κB signaling pathway. We used a MG132 incubation period of 4 h as longer incubations have been described to activate NF-κB signaling ([Lee et al., 2013]).
FIGURE 1 Effects of NFA on the NF-κB p65 and p50 signaling pathway in colorectal cancer cells. […] Incubation for 4 h with the proteasome inhibitor MG132 (1 µM) served as the positive control. […] Values are normalized to protein concentration and unstimulated vehicle control. Data are represented as mean ± SD of (A) n = 3 (DMSO, 16.9.9, 9NOA control of right panel, 18.4.4, 18.6.7, and 18.9.10), n = 4 (all other derivatives) and (B) n = 5. Statistical significance was calculated by one-way analysis of variance (ANOVA) with Bonferroni post-test. *p ≤ 0.03, **p ≤ 0.0021, ***p ≤ 0.0002, ****p ≤ 0.0001 were considered significant versus TNF-α treatment.

[2] = tested on: Nrf-2; test: Nrf-2 induction in HCT-116 cells (Western blot and ELISA); format: cell-based, human; settings: 10 µM, 4 h, HCT-116, Western blot and ELISA
Method: as §1
HCT-116 and A549 cells were washed with 1× PBS, and cell extracts were generated using a Nuclear Extraction Kit (Cayman Chemical, #10009277) according to the manufacturer’s instructions, whereas whole-cell lysates were obtained using SDS lysis buffer (55.5 mM Tris-HCl pH 6.8, 2.2% SDS, 9% glycerol supplemented with protease (cOmplete® Protease Inhibitor Cocktail, Roche, Mannheim, Germany) and phosphatase (PhosStop® Easy Pack, Roche, Mannheim, Germany) inhibitors. Protein concentrations from the nuclear and cytosolic fractions were determined with a bicinchoninic acid (BCA) protein assay kit (Pierce™, Rockford, Illinois, United States). Cytoplasmic and nuclear extracts (100 µg each) and 30 µg whole-cell lysates were diluted in 5× Laemmli loading dye and denatured for 10 min at 95°C, loaded on a 10% SDS polyacrylamide gel, and separated by gel electrophoresis for 15 min at 80 V followed by 60 min at 120 V. The separated proteins were blotted onto a nitrocellulose membrane (Hybond-C Extra, Amersham Biosciences Ltd., UK) using the Mini Trans-Blot® module (Bio-Rad, Hercules, California, United States) for 90 min at 90 V. The membrane was blocked with Odyssey blocking buffer (Li-Cor Biosciences, Bad Homburg, Germany) or 5% milk powder in TBS-T (Tris Buffered Saline with 0.1% Tween) for 1 h at room temperature (RT). The membranes were incubated with the primary antibodies overnight at 4°C, and then with the secondary antibodies for 1 h at RT. The primary antibodies were diluted 1:1,000 and the secondary antibodies were diluted 1:10,000 to 1:20,000. […]
FIGURE 2 Effects of NFA on Nrf-2 expression in colorectal cancer cells. HCT-116 cells were treated with 10 µM NFA and tBHQ and/or MMF for 4 h, and Nrf-2 levels were analyzed by western blotting and ELISA. […] (B) Nrf-2 expression levels were evaluated with an ELISA after incubation with NFA with different carbon chain lengths and Michael acceptor positions. […]

[3] = tested on: HT-29 cells; test: WST-1 cell viability assay, HT-29; format: cell-based, human; settings: n.i. = no inhibition observed
Method: (§2) Cell viability was analyzed with the WST-1 assay based on the cleavage of the stable tetrazolium salt WST-1 by the mitochondrial reductase system. Cells were seeded in the appropriate densities in a clear 96-well plate and settled overnight at 37°C in 5% CO2. The next day, the cells were treated with NFA or the substances of interest (≤0.1% dimethyl sulfoxide [DMSO]) and incubated for 24 or 48 h at 37°C in 5% CO2. Cell viability was analyzed by adding 10 µl WST-1 solution (Roche, Basel, Switzerland) and subsequently incubating the cells at 37°C for another 30–40 min. Absorbance was measured at 450 nm with a control wavelength at 620 nm using a plate reader.
(§3) Besides targeting the NF-κB pathway, the anti-tumorigenic effects of NFA can be observed by a reduction of colorectal cancer cell viability. […] Again, the cytotoxic effects of NFA were determined in HCT-116 and HT-29 colorectal cancer cells in the present study. […] HCT-116 cells were treated with increasing concentrations of NFA differing in chain length and Michael acceptor position for 24 h, and cell viability was determined using the WST-1 assay. Due to their prolonged cell division rate and their lack of sensitivity towards NFA ([Kühn et al., 2018]), HT-29 cells were treated for 48 h to gain improved NFA activity.

[4] = tested on: HCT-116 cells; test: WST-1 cell viability assay, HCT-116; format: cell-based, human; settings: WST-1 cell viability, 24 h, n.i. = no inhibition observed
Method: as §2, §3

[5] = target: T1, 5-LO (Homo sapiens, UniProt P09917); test: 5-LO product formation (LTB4, 5-HETE) in intact PMNL, A23187 + 20 µM AA; format: cell-based; settings: 10 µM, A23187 2.5 µM + 20 µM AA (data not shown)
T1 construct: endogenous in cells; host or cells: human PMNL from buffy coats
T1 sequence (P09917 1-674): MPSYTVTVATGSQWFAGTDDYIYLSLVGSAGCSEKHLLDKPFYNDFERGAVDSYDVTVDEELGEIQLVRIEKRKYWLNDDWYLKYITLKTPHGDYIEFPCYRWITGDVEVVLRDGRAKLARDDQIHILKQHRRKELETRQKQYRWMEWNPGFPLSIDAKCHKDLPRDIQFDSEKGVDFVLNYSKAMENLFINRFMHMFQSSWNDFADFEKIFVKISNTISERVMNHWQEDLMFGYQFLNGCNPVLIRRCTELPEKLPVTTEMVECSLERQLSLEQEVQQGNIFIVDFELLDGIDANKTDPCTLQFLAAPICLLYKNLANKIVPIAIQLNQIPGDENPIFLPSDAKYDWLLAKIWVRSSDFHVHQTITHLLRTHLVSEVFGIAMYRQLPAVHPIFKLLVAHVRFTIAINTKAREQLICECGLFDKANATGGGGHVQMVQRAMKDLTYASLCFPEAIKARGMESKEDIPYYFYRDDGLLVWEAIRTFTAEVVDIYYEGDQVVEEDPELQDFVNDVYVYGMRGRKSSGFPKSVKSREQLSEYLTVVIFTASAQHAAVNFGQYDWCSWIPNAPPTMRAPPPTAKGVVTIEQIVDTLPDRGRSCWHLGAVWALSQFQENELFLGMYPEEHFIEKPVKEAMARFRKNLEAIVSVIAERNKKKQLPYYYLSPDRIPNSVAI
Method: Buffy coats from different donors of different blood types were commercially obtained from DRK Blutspendedienst Baden-Württemberg Institute Frankfurt. Donors have given their written consent. […] Following separation, the supernatant was transferred very gently to new 50-ml tubes containing lymphocyte separation medium (LSM) and centrifuged for 10 min at 800 ×g at RT with the centrifuge brake turned off. Afterwards, the supernatant was decanted carefully to discard the platelets and monocytes. The PMNL were washed with 1× PBS before the residual erythrocytes were lysed in two cycles: the cell pellet was resuspended with 10 ml H2O and vortexed for 45 s, and lysis was stopped with 40 ml 1 × PBS. After 10-min centrifugation at 200 ×g at RT, the cycle was repeated once. The supernatant was aspirated, the cell pellet resuspended in 5 ml PBS/glucose and initially separated PMNL preparations with different blood types were finally pooled to gain a sufficient number of cells. […] The enzyme was diluted in PBS/EDTA/ATP, transferred into 5-ml glass tubes, and stored on ice. […] The reaction was stopped by placing the glass tubes on ice. The supernatants were transferred to 1.5 ml reaction tubes and stored at −80°C before LC-MS (liquid chromatography and mass spectrometry) analysis of LTB4 and HETEs as described in 2.6 at the Institute of Pharmacology, Goethe University, University Hospital, Germany. The lipid mediators LTB4, hydroxyeicosatetraenoic acids, 5(S)-HETE, 12(S)-HETE, 15(S)-HETE and 20-HETE were analyzed using liquid chromatography tandem-mass spectroscopy (LC-MS/MS). The LC-MS/MS system consisted of a 5500 QTrap mass spectrometer (Sciex, Darmstadt, Germany), operating in negative ESI mode, an Agilent 1200 HPLC system (Agilent, Waldbronn, Germany) and an HTC Pal autosampler (Chromtech, Idstein, Germany). Sample extraction of LTB4 and HETEs were performed using liquid-liquid extraction: 200 µl of the sample were gently mixed with 20 µl of methanol and 20 µl of internal standard solution and extracted twice with 600 µl ethyl acetate. […] Working solutions of all analytes were prepared in methanol containing 0.1% BHT. The calibration standards were prepared by further dilution of the working standards. […] The residues were reconstituted in 50 µl of methanol:water:BHT (50:50:10^−4, v/v/v) prior to injection into the LC-MS/MS system. Chromatographic separation was achieved using a Gemini NX C18 column (150 mm × 2 mm ID, 5 µm, Phenomenex, Aschaffenburg, Germany) with a precolumn of the same material. A linear gradient was employed at a flow rate of 0.5 ml/min and a total run time of 17.5 min. Mobile phases were A water:ammonia (100:0.05, v/v) and B acetonitrile:ammonia (100:0.05, v/v). […] All data were acquired using Analyst software v1.6.2 and quantitation was performed by MultiQuant software v3.0 (both Sciex, Darmstadt, Germany) using the internal standard method (isotope-dilution mass spectrometry). Calibration curves were calculated by linear regression with 1/x.

Compound: CC(C)C[C@@H](C=O)NC(=O)[C@H](CC(C)C)NC(=O)[C@H](CC(C)C)NC(=O)OCc1ccccc1 [MG132, reference compound] (Cbz-Leu-Leu-Leu-aldehyde)
- inhibition at 1 µM [1]: ~90%

Compound: COC(=O)/C=C/C(=O)O [MMF, monomethyl fumarate]
- induction of Nrf-2 (protein levels / signaling) [2]: increase

Compound: CC1=CC(=O)C(C(C)C)=CC1=O [TQ, thymoquinone, reference compound]
- IC50 ([3]; Homo sapiens, HT-29, 48 h): 10.3 ± 1.1 µM
- HT-29 (48 h) IC50 [3]: suppressed HCT-116 and HT-29 cell viability effectively
- IC50 ([4]; Homo sapiens, HCT-116): 4.2 ± 1.2 µM
- HCT-116 (24 h) IC50 [4]: suppressed HCT-116 and HT-29 cell viability effectively

Compound: COc1ccc2c(c1)CC[C@@H]1[C@@H]2CC[C@]2(C)[C@@H](NCCCCCCN3C(=O)C=CC3=O)CC[C@@H]12 [U73122, reference compound]
- inhibition of 5-LO product formation in PMNL [5]: > 90%

Compound: CC(C)(C)c1cc(O)ccc1O [tBHQ, tert-butylhydroquinone]
- induction of Nrf-2 (protein levels / signaling) [2]: increase
